Test results: patent US10562893B2, “Benzimidazoles derivatives as Tec kinases family inhibitors” (GB005, Inc., priority 2015, dated 2020)

Legend:
Human PBMCs = assay: CD3/CD28 mediated PBMC proliferation assay; format: cell-based; conditions: proliferation of human PBMCs stimulated with anti-CD3 and anti-CD28, 72 hours, Cell Titer-Glo
Experimental: Inhibition of cellular ITK was assessed by measuring proliferation of PBMCs following stimulation with anti-CD3 and anti-CD28 antibodies. Individual wells of 96 well tissue culture plates were coated with 50 μL of 5 μg/mL anti-CD3 (OKT3, eBiosciences) for 2 hours at 37° C. Human PBMCs (Stemcell Technologies catalog #70025.3) were plated in 96-well plates at a final concentration of 9.2×10e5 cells/mL in complete media (RPMI, 10% heat inactivated FBS, 55 uM β-mercaptoethanol) and pre-treated with compound curves for 30 minutes at 37° C., 5% CO2. Pre-treated cells plus compounds were transferred to washed anti-CD3 coated plates. Soluble anti-CD28 (CD28.2 eBiosciences) was added to each well at a final concentration of 2 μg/mL. The cells were placed in a humidified 37° C. incubator with 5% CO2 for 72 hours and metabolic viability was measured by quantification of ATP levels with Cell Titer-Glo (Promega catalog # G9242). Controls included unstimulated cells and vehicle alone. EC50 values (50% proliferation in the presence of compound as compared to vehicle treated controls) were calculated from dose response compound curves using GraphPad Prism Software.

[1] = tested on: Jurkat human acute T cell leukemia cells; assay: Jurkat IL-2 release assay; format: cell-based; conditions: IL-2 release from Jurkat cells stimulated with anti-CD3 and anti-CD28, 48 hours, ELISA
Experimental: Inhibition of cellular ITK was assessed by measuring release of IL-2 following stimulation with anti-CD3 and anti-CD28 antibodies. Individual wells of 96 well tissue culture plates were coated with 50 μL of 10 μg/mL anti-CD3 (OKT3, eBiosciences) for 2 hours at 37° C. Jurkat human acute T cell leukemia cells (ATCC) were plated in 96-well plates at a final concentration of 9.2×10e5 cells/mL in complete media (RPMI, 10% FBS, 1.5 g/L sodium bicarbonate, 10 mM Hepes, 1 mM sodium pyruvate, 4.5 g/L glucose) and pre-treated with compound curves for 30 minutes at 37° C., 5% CO2. Pre-treated cells plus compounds were transferred to washed anti-CD3 coated plates. Soluble anti-CD28 (CD28.2 eBiosciences) was added to each well at a final concentration of 1 μg/mL. The cells were placed in a humidified 37° C. incubator with 5% CO2 for 48 hours and IL-2 release was measured using a commercial ELISA (BD Bioscience catalog #555190). Controls included unstimulated cells and vehicle alone. EC50 values (50% IL-2 release in the presence of compound as compared to vehicle treated controls) were calculated from dose response compound curves using GraphPad Prism Software.

Structure (SMILES)	EC50 [1] [nM]	EC50 (Human PBMCs) [nM]
C=CC(=O)Nc1cccc(-n2c(NC(=O)c3ccc(C(F)F)s3)nc3cc(CN[C@H](CO)C(C)(C)C)ccc32)c1 [Compound 47]		< 10
C=CC(=O)N[C@H]1C[C@@H](n2c(NC(=O)c3ccc(C(F)F)s3)nc3cc(NC(=O)C4CCCCC4)ccc32)C1 [Compound 64]		> 100
C=CC(=O)Nc1cccc(-n2c(NC(=O)c3ccns3)nc3cc(CN4CCOCC4)ccc32)c1 [Compound 73]	< 10	10 to 100
C=CC(=O)Nc1cccc(-n2c(NC(=O)c3ccns3)nc3cc(CN[C@H]4CC[C@H](O)CC4)ccc32)c1 [Compound 75]		> 100
C/C=C/C(=O)Nc1cccc(-n2c(NC(=O)c3ccc(C(F)F)s3)nc3cc(CN[C@@H](C)C(C)(C)C)ccc32)c1 [Compound 83]		> 100
C=CC(=O)N1CCOc2ccc(-n3c(NC(=O)c4ccc(C(F)F)s4)nc4cc(CN[C@@H](C)C(C)(C)C)ccc43)cc21 [Compound 57]	10 to 100	10 to 100
C=CC(=O)N1CCc2ccc(-n3c(NC(=O)c4ccc(C(F)F)s4)nc4cc(CN[C@@H](C)C(C)(C)C)ccc43)cc21 [Compound 56]		10 to 100
C=CC(=O)N[C@H]1C[C@@H](n2c(NC(=O)c3ccc(C(F)F)s3)nc3cc(C(=O)N(C)C4CCCCC4)ccc32)C1 [Compound 65]		> 100
C=CC(=O)Nc1cccc(-n2c(NC(=O)c3ccc(C(F)F)s3)nc3cc(CN[C@H]4CC[C@@H](OCCOC)CC4)ccc32)c1 [Compound 60]		< 10
C=CC(=O)Nc1cccc(-n2c(NC(=O)c3ccc(C(F)F)s3)nc3cc(C(=O)N(C)C4CCCCC4)ccc32)c1 [Compound 48]		10 to 100
C=CC(=O)Nc1cccc(-n2c(NC(=O)c3ccc(C(F)F)s3)nc3cc(CN4CCCC4)ccc32)c1 [Compound 32]	< 10	< 10
C=CC(=O)Nc1cccc(-n2c(NC(=O)c3ccc(C(F)F)s3)nc3cc(CN[C@H]4CC[C@H](OCCOC)CC4)ccc32)c1 [Compound 51]		< 10
C=CC(=O)N[C@H]1C[C@@H](n2c(NC(=O)c3ccc(C(F)F)s3)nc3cc(C(=O)NC4CCCCC4)ccc32)C1 [Compound 70]		> 100
C=CC(=O)Nc1cccc(-n2c(NC(=O)c3ccc(C(F)F)s3)nc3cc(CNCCCOCCOCCCNC(C)=O)ccc32)c1 [Compound 66]		10 to 100
C=CC(=O)N[C@H]1CC[C@@H](n2c(NC(=O)c3ccc(-c4cnco4)s3)nc3cc(CN[C@@H](C)C(C)(C)C)ccc32)CC1 [Compound 71]		10 to 100
C=CC(=O)N(C)[C@H]1CC[C@@H](n2c(NC(=O)c3ccc(C(F)F)s3)nc3cc(CN[C@@H](C)C(C)(C)C)ccc32)CC1 [Compound 58]		> 100
C=CC(=O)Nc1cccc(-n2c(NC(=O)c3ccc(C(F)F)s3)nc3cc(CN4CCN(CCO)CC4)ccc32)c1 [Compound 59]	< 10	< 10
C=CC(=O)Nc1cccc(-n2c(NC(=O)c3ccc(C(F)F)s3)nc3cc(CN4C[C@@H](C)O[C@@H](C)C4)ccc32)c1 [Compound 61]		< 10
C=CC(=O)N[C@H]1C[C@@H](n2c(NC(=O)c3ccc(C(F)F)s3)nc3cc(N(C)C(=O)C4CCCCC4)ccc32)C1 [Compound 63]		> 100
C=CC(=O)N[C@H]1CC[C@@H](n2c(NC(=O)c3cccnc3)nc3cc(CN[C@@H](C)C(C)(C)C)ccc32)CC1 [Compound 55]		> 100
C=CC(=O)Nc1cccc(-n2c(NC(=O)c3ccc(C(F)F)s3)nc3cc(N(C)S(C)(=O)=O)ccc32)c1 [Compound 80]	10 to 100	10 to 100
C=CC(=O)Nc1cccc(-n2c(NC(=O)c3ccc(C(F)F)s3)nc3cc(CNCCOCCOC)ccc32)c1 [Compound 46]		10 to 100
C=CC(=O)Nc1cccc(-n2c(NC(=O)c3ccc(C(F)F)s3)nc3cc(CN4CCC[C@@H]4CO)ccc32)c1 [Compound 44]		< 10
C=CC(=O)Nc1cccc(-n2c(NC(=O)c3cnn(C)c3)nc3cc(CN[C@@H](C)C(C)(C)C)ccc32)c1 [Compound 49]		> 100
C=CC(=O)Nc1cccc(-n2c(NC(=O)c3ccc(C(F)F)s3)nc3cc(CN4CCC[C@H]4CO)ccc32)c1 [Compound 45]		< 10
C=CC(=O)Nc1cccc(-n2c(NC(=O)c3ccc(C(F)F)s3)nc3cc(CO)ccc32)c1 [Compound 69]		10 to 100
C=CC(=O)Nc1cccc(-n2c(NC(=O)c3ccc(C(F)F)s3)nc3cc(C(=O)NC4CCCCC4)ccc32)c1 [Compound 53]		10 to 100
C=CC(=O)Nc1cccc(-n2c(NC(=O)c3ccno3)nc3cc(CN[C@H]4CC[C@H](O)CC4)ccc32)c1 [Compound 74]		> 100
C=CC(=O)Nc1cccc(-n2c(NC(=O)c3ccc(C(F)F)s3)nc3cc(OCc4ccccc4)ccc32)c1 [Compound 79]		> 100

More lines, main results first:

EC50 [1] [nM]	Structure (SMILES)	EC50 (Human PBMCs) [nM]
< 10	C=CC(=O)Nc1cccc(-n2c(NC(=O)c3ccc(C(F)F)s3)nc3cc(CN[C@@H](CO)C(C)(C)C)ccc32)c1 [Compound 22]	< 10
< 10	C=CC(=O)N(C)c1cccc(-n2c(NC(=O)c3ccc(C(F)F)s3)nc3cc(CN[C@@H](C)C(C)(C)C)ccc32)c1 [Compound 5]	10 to 100
< 10	C=CC(=O)Nc1cccc(-n2c(NC(=O)c3cncnc3)nc3cc(CN[C@@H](C)C(C)(C)C)ccc32)c1 [Compound 41]	10 to 100
10 to 100	C=CC(=O)Nc1cccc(-n2c(NC(=O)c3cnc(C(C)C)s3)nc3cc(CN[C@@H](C)C(C)(C)C)ccc32)c1 [Compound 82]	
10 to 100	C=CC(=O)Nc1cccc(-n2c(NC(=O)c3ccc(F)cc3)nc3cc(CN[C@@H](C)C(C)(C)C)ccc32)c1 [Compound 20]	> 100
> 100	C=CC(=O)Nc1cccc(-n2c(NC(=O)c3ccc(OC)cc3)nc3cc(CN[C@@H](C)C(C)(C)C)ccc32)c1 [Compound 24]	> 100
10 to 100	C=CC(=O)Nc1cccc(-n2c(NC(=O)c3cccc(O)c3)nc3cc(CN[C@@H](C)C(C)(C)C)ccc32)c1 [Compound 26]	> 100
< 10	C=CC(=O)Nc1cccc(-n2c(NC(=O)c3ccc(C(F)F)s3)nc3cc(CNCC(C)(C)CO)ccc32)c1 [Compound 29]	< 10
< 10	C=CC(=O)Nc1ccc(F)c(-n2c(NC(=O)c3ccc(C(F)F)s3)nc3cc(CN[C@@H](C)C(C)(C)C)ccc32)c1 [Compound 33]	< 10
< 10	C=CC(=O)Nc1cccc(-n2c(NC(=O)c3ccc(C(F)F)s3)nc3cc(CNCC(C)(C)C)ccc32)c1 [Compound 23]	< 10
> 100	C=CC(=O)Nc1cccc(-n2c(NC(=O)c3ccc(OCc4ccccc4)cc3)nc3cc(CN[C@@H](C)C(C)(C)C)ccc32)c1 [Compound 37]	> 100
> 100	C=CC(=O)Nc1cc(-n2c(NC(=O)c3ccc(C(F)F)s3)nc3cc(CN[C@@H](C)C(C)(C)C)ccc32)ccc1F [Compound 34]	> 100
10 to 100	C=CC(=O)Nc1cccc(-n2c(NC(=O)c3cccc(Cl)c3)nc3cc(CN[C@@H](C)C(C)(C)C)ccc32)c1 [Compound 15]	10 to 100
10 to 100	C=CC(=O)Nc1cccc(-n2c(NC(=O)c3ccc(C(F)F)s3)nc3cc(CNCC)ccc32)c1 [Compound 40]	< 10
10 to 100	C=CC(=O)Nc1cccc(-n2c(NC(=O)c3ccc(C(F)F)s3)nc3cc(CN[C@H](C)C(C)(C)C)ccc32)c1 [Compound 30]	< 10
10 to 100	C=CC(=O)Nc1cccc(-n2c(NC(=O)c3ccc(C(F)F)s3)nc3cc(CN(C(C)=O)[C@@H](C)C(C)(C)C)ccc32)c1 [Compound 36]	10 to 100
10 to 100	C[C@H](NCc1ccc2c(c1)nc(NC(=O)c1ccc(C(F)F)s1)n2-c1cccc(NC(=O)/C=C/CN(C)C)c1)C(C)(C)C [Compound 78]	> 100
10 to 100	C=CC(=O)Nc1cccc(-n2c(NC(=O)c3ccc(Cl)cc3)nc3cc(CN[C@@H](C)C(C)(C)C)ccc32)c1 [Compound 10]	10 to 100
10 to 100	C=C(F)C(=O)Nc1cccc(-n2c(NC(=O)c3ccc(C(F)F)s3)nc3cc(CN[C@@H](C)C(C)(C)C)ccc32)c1 [Compound 84]	10 to 100
10 to 100	C=CC(=O)Nc1cccc(-n2c(NC(=O)c3cccc(OC)c3)nc3cc(CN[C@@H](C)C(C)(C)C)ccc32)c1 [Compound 8]	> 100
10 to 100	C=CC(=O)Nc1cccc(-n2c(NC(=O)c3cccs3)nc3cc(CN[C@@H](C)C(C)(C)C)ccc32)c1 [Compound 13]	10 to 100
